Laboratory results published in publication PMC8825254, “Rational design of Striga hermonthica-specific seed germination inhibitors” (Plant Physiology, 2021).
Read-outs that look alike come from different tables or passages of the source.

What was measured:
ShHTL7 [1] = biological target: T1, ShHTL7 (Striga hermonthica, UniProt A0A0M3PNA2); design: method as in Holbrook-Smith et al., 2016; Yoneyama, 2016; conditions: previously reported, ref Holbrook-Smith et al., 2016, Yoneyama, read-out: IC50, competitive inhibition of ShHTL7-mediated YLG hydrolysis; cited from earlier work
T1 sequence (A0A0M3PNA2 1-271): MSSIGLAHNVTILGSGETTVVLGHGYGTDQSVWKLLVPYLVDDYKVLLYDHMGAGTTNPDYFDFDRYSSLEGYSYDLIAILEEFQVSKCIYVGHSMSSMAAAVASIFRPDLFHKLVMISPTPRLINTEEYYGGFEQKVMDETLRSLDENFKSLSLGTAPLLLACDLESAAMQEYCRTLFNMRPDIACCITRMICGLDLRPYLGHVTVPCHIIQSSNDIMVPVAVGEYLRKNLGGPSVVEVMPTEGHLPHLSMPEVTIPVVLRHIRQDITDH

ShHTL7 [2] = biological target: T1, ShHTL7; assay: DSF thermal stability of ShHTL7; type: binding; conditions: for Effect on SYPRO orange fluorescence peak of ShHTL7: 0 to 100 µM, result in words
Procedure: About 10 µM of ShHTL7 purified protein was incubated with various concentrations of KK023-N1, Triton X-100, or KK094 (ranging from 0 to 100 µM) for 30 min. Then SYPRO Orange (reporter dye) was added to 1× final concentration. The reactions were carried out in 25 µL 1× PBs buffer. The assay was performed on CFX96 Real-Time System (BIO-RAD, Hercules, CA, USA) thermal cycler on 96-well quantitative polymerase chain reaction (qPCR) white plate, and the plate was sealed with adhesive qPCR plate seal to prevent samples evaporation ([Bai et al., 2019]). First, samples were heated to 25°C for 1 min followed by linear increase in the temperature ramp from 25°C to 99°C at a rate of 0.5°C/15 s. The change in the protein folding was monitored by the changes in the fluorescence of the reporter dye, and the data were analyzed by the machine software that plots the inflection point of fluorescence against temperature. Data were exported into Excel, and replicates were averaged to generate the graph.

Rice d17 seedlings = assay: Rice micro tillering assay, SL-deficient mutant d17 with GR24; type: in vivo, rice (Oryza sativa); conditions: compound with 1.0 µM GR24; result in words
Procedure: (§1) Rice seeds of WT (cv Nipponbare) or SL-deficient mutant (d17), were surface sterilized with 2.5% NaClO and 0.05% of Tween-20 for 10 min, and rinsed 6 times with sterilized MilliQ water. About 30 seeds were placed on sterilized Magenta GA-7 plant culture box containing 0.5% MS medium with 0.4% agar and incubated at 30°C in dark. After 2 d, boxes were moved to a growth chamber and allowed to grow for another 5 d under fluorescent white light (130–180 μM m^−2 s^−1). Equally grown seedlings were transplanted in 50-mL black tubes filled with Hoagland nutrient solution (1 seedling/tube). Seedlings were treated with 10, 50, and 100 µM of each compound (KK023-N1, Triton X-100, and KK094). The compounds were applied twice a week for 2 weeks to test their effects on the growth of WT plants. SL-deficient seedlings (d17) were treated as WT but with the addition of 1 µM GR24. Number of tillers per plant, plant height, and dry biomass were measured at final harvest.

ShHTL7 [3] = biological target: T1, ShHTL7; assay: YLG hydrolysis competition assay with ShHTL7; type: biochemical
Procedure: About 0.33 µM of ShHTL7 protein was used to conduct in vitro hydrolysis of YLG (1 µM) as a substrate in a total volume of 100 µL of phosphate-buffered saline (1× PBS) containing 0.1% DMSO in 96-well black plate (Greiner Kremsmünster, Austria; [Tsuchiya et al., 2015]). The hydrolysis of YLG over time and changes in the fluorescence intensity was measured by SpectraMax i3 (Molecular Devices, San Jose, CA, USA) using an excitation wavelength of 480 nm and detection wavelength of 520 nm and recorded at 10 min intervals for 2 h. YLG in 1× PBS without protein was used as a control. […] Measurement of the fluorescence was conducted in SpectraMax i3 (Molecular Devices) using the above-mentioned method. The relative fluorescence unit was calculated by subtracting the auto-fluorescence of YLG in the buffer from the fluorescence values of YLG in the presence of a protein. The inhibitory curve and IC50 were determined using https://www.aatbio.com/tools/ic50-calculator website.

Striga hermonthica seeds = assay: Striga seed germination bioassay (seeds from Sudan); type: in vivo; conditions: for Reduction in Striga seed germination compared to the GR24 treatment: 20-40 µM inhibitor
Procedure: Striga seeds were surface sterilized by 20% Sodium hypochlorite (NaClO) for 10 min followed by successive 6 times washing with sterilized MilliQ water. Seeds were kept to dry under the laminar flow cabinet, and ∼50–100 sterilized Striga seeds were spread uniformly on a glass fiber filter paper disc (9 mm). For preconditioning, around 12 discs were put in a petri plate on a filter paper moistened with 3 mL sterilized MilliQ water. Plates were then sealed with parafilm and kept in an incubator for 10 d at 30°C (in dark). After preconditioning, plates were removed from the incubator and dried, and discs were pre-treated with different concentrations (0, 5, 10, 20, 40, 80, 160, 320, and 640 μM) of KK023-N1, KK023-N2, Triton X-100, or KK094 for 24 h. Next day, a combination of the inhibitors (same concentrations) along with GR24 (0.5 nM or 1 nM) was applied, and discs were incubated at 30°C for 24 h. For inhibitory effect of KK023-N1 and -N2 on Striga seeds obtained from Kenya, seeds were treated with (0, 3, 6, 12, 25, 50,100, 200, 400, and 800 μM). After image scanning, germinated and nongerminated seeds were counted and germination rate (%) was calculated by using SeedQuant software ([Braguy et al., 2021)].

[4] = test system: Rice WT (cv Nipponbare) seedlings; assay: Rice micro tillering assay, WT, hydroponics; type: in vivo, rice (Oryza sativa); conditions: 10, 50 and 100 µM, 2 weeks, result in words
Procedure: as §1

OsD14 = biological target: T2, OsD14 (Oryza sativa subsp. japonica, UniProt Q10QA5); assay: YLG hydrolysis competition assay with OsD14; type: biochemical, rice (Oryza sativa)
T2 construct: made in house; host or cells: Escherichia coli BL21 (DE3)
T2 sequence (Q10QA5 1-318): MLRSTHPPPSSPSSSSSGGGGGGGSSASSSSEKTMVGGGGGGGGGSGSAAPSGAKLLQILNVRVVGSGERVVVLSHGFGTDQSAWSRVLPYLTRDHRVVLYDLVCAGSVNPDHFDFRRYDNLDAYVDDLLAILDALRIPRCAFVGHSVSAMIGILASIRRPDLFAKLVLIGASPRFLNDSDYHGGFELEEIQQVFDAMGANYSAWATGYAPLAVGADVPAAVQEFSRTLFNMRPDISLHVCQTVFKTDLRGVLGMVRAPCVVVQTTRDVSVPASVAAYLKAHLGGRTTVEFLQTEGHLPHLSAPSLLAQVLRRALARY

ShHTL5 = ShHTL5 (Striga hermonthica, UniProt A0A0M5I297); assay: YLG hydrolysis competition assay with ShHTL5; type: biochemical; conditions: result in words
Sequence of ShHTL5 (A0A0M5I297 entry or part of it): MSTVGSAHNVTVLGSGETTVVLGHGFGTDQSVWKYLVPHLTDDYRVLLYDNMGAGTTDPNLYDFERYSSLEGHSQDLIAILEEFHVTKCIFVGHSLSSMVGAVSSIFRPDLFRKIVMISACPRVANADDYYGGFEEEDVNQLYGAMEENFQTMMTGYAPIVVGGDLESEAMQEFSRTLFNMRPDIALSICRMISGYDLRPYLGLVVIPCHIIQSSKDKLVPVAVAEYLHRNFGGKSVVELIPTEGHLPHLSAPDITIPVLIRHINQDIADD

[5] = test system: Rice seeds (cv Nipponbare); assay: Rice germination and seedling growth in response to inhibitors; type: in vivo, rice (Oryza sativa); conditions: result in words
Procedure: Rice seeds (cv Nipponbare) were surface sterilized in 2.5% NaClO and 0.05% of Tween-20 for 10 min, and rinsed 6 times with sterilized MilliQ water. Seeds were imbibed in sterilized water at 30°C for 24 h in the dark. Next day, ∼3 mL of each inhibitor at different concentrations (3, 6, 12, 25, 50, and 100 μM) was added along with 0.5 Murashige and Skoog (MS) medium into 24-well plate, and one imbibed rice seed was placed in each well. The experiment was performed in six replications (one plant/well, n = 6) for each concentration. Nontreated rice seeds in 0.5-MS solution were included as a control. Seeds were allowed to germinate at 30°C in the dark for 48 h for monitoring seeds germination, and seeds were moved to a growth chamber with white fluorescent light (130–180 μM m^−2 s^−1) and12 h:12 h (Light/Dark (L/D)) period at 28°C. After 1 week, length of rice seedlings was measured and recorded, and pictures of seedlings were taken.

Striga hermonthica = assay: Striga emergence study in infested rice pots under greenhouse conditions; type: in vivo, Striga hermonthica on rice cv IAC165; conditions: for Change in Striga emergence compared to mock: Figure 10B; for Rice plant height, change: Striga-infested pots, Figure 10C
Procedure: Approximately 6,000 Striga seeds (20 mg) were weighed, mixed with sand/soil mixture (1:2 ratio), and put into a 3-L perforated plastic pot containing 0.5-L clean sand/soil mixture in the bottom. The pots were kept under greenhouse-controlled conditions at 30°C and kept moist with water for Striga preconditioning for 10 d. Formulated KK023-N1 and Triton X-100 were applied (at 100 mL per pot) at 10 and 100 µM concentration. Then three rice seedlings (cv IAC165, 10 d old) were planted in each pot after 24 h of inhibitor application. All the treatments were applied continuously twice per week for 4 weeks. Water with same amount of solvent (Cyclohexanone+Atlas-G) was used as a control. Pots were irrigated with 200 mL of Hoagland’s nutrient solution with low phosphate (4 µM) when needed. The rice plants were allowed to grow under greenhouse conditions for 10 weeks and the emerged Striga plants were counted from each pot. The height of rice plants was also measured to see impact of Striga infestation on host growth.

[6] = 0.33 µM ShHTL7, 1 µM YLG, read-out: IC50, inhibition of ShHTL7-mediated YLG hydrolysis

Compound: CCOC(=O)C1(Cc2cccc(C(F)(F)F)c2)CCN(Cc2ccc(C#CCCO)cc2)CC1 [Soporidine]
- IC50 (ShHTL7 [1]): 12.5 µM

Compound: O=C(N1CCc2ccccc21)n1ccnn1 [KK094]
- Effect on SYPRO orange fluorescence peak of ShHTL7 (ShHTL7 [2]): did not change the fluorescence peak
- Effect on GR24 action on tillering of d17 rice (Rice d17 seedlings): blocked D14, resulting in increased tillering phenotype
- IC50 (ShHTL7 [3]): > 25 µM
- Reduction in Striga seed germination (Striga hermonthica seeds; 20 µM inhibitor, GR24 0.5 or 1.0 nM): 50%
- Inhibition of Striga seed germination (Striga hermonthica seeds; 80 µM, result in words): complete inhibition
- inhibition at 100 µM (Striga hermonthica seeds; Striga hermonthica, 100 µM): 100%
- Effect on dry biomass of WT rice [4]: reduction in plant height and dry biomass
- Effect on plant height of WT rice [4]: reduction in plant height
- Effect on tillering of WT rice [4]: significant increase in rice tillering

Compound: COc1ccc(CCCc2cccc3c2CCN3C(=O)n2nccn2)cc1 [KK023-N2]
- IC50 (OsD14; Figure 3D-F, mean ± SD, n = 3, no unit printed with values (x-axis µM), read-out: IC50, OsD14-mediated YLG hydrolysis (Figure 3)): > 50 µM
- Effect on YLG hydrolysis by ShHTL5 (ShHTL5): did not influence the YLG hydrolysis
- IC50 (ShHTL7 [3]): 2.15 µM
- Effect on rice seedling plant height ([5]; all treatments (3-100 µM), 1 week): no effect on plant height was observed
- Effect on rice seed germination ([5]; up to 100 µM): did not detect any effect on seed germination
- Phenotype of treated rice seedlings versus control ([5]; up to 100 µM): did not show any significant phenotypic difference
- Reduction in Striga seed germination compared to the GR24 treatment (Striga hermonthica seeds; GR24 0.5 or 1.0 nM): around 42%

Compound: CC1=C[C@H](O/C=C2/C(=O)O[C@@H]3c4ccccc4C[C@H]23)OC1=O [GR24]
- IC50 (OsD14; 0.33 µM OsD14, 1 µM YLG, read-out: IC50, inhibition of OsD14-mediated YLG hydrolysis): 2.59 µM
- Decrease of ShHTL7 melting temperature (ShHTL7 [2]): 7 °C
- Melting temperature of ShHTL7 (ShHTL7 [2]; high concentrations of compound, 50°C without): 43 °C
- IC50 (ShHTL7 [3]; [6]): 0.27 µM

Compound: Triton X-100 [reference compound]
- Effect on SYPRO orange fluorescence peak of ShHTL7 (ShHTL7 [2]): reduction in the peak fluorescence
- Effect on GR24 action on tillering of d17 rice (Rice d17 seedlings): did not block the GR24 effect on rice tillers
- IC50 (ShHTL7 [3]; [6]): 0.47 µM
- Change in Striga emergence compared to mock (Striga hermonthica; 10 µM): -13%
- Rice plant height, change (Striga hermonthica; 10 µM): -23%
- Change in Striga emergence compared to mock (Striga hermonthica; 100 µM): -25%
- Rice plant height, change (Striga hermonthica; 100 µM): -4%
- Reduction in Striga seed germination compared to the GR24 treatment (Striga hermonthica seeds; GR24 0.5 or 1.0 nM): 31%
